The values below come from publication PMC7808732 (Biochemical and Biophysical Research Communications, 2021).

The experiment addresses RNA-binding domain (RBD) of the SARS-CoV-2 nucleocapsid (N) protein, RBD (44–180) (Severe acute respiratory syndrome coronavirus 2, UniProt P0DTC9). As to the kind of experiment: biochemical.

Consider `Nc1ncnc2c1ncn2[C@@H]1O[C@H](COP(=O)(O)OP(=O)(O)OP(=O)(O)O)[C@@H](O)[C@H]1O` [ATP], for which the Kd worked out at 3.3 ± 0.4 mM.

As a reminder, the Kd is the free concentration of one partner at which half of the binding sites on the other are occupied at equilibrium, for simple one-to-one binding. Lower therefore signals higher affinity.
